Results reported in patent publication US8846570B2, “Herbicidal compositions comprising 4-amino-3-chloro-5-fluoro-6-(4-chloro-2-fluoro-3-methoxyphenyl)pyridine-2-carboxylic acid or a derivative thereof and microtubule inhibiting herbicides” (Dow AgroSciences LLC, priority 2012, dated 2014).

Tests used:
Format in all cases: in vivo
[1] = system: Ipomoea hederacea Jacq. (IPOHE); experiment: Postemergence foliar-applied, direct seeded rice, greenhouse: visual weed control; settings: post-emergence, 528 h, 22 DAA, read-out: Visual Weed Control (%) Obs
Experimental: Seeds or nutlets of the desired test plant species were planted in a soil matrix prepared by mixing a loam or sandy loam soil (e.g., 28.6 percent silt, 18.8 percent clay, and 52.6 percent sand, with a pH of about 5.8 and an organic matter content of about 1.8 percent) and calcareous grit in an 80 to 20 ratio. The soil matrix was contained in plastic pots with a volume of 1 quart and a surface area of 83.6 cm^2. […] The plants were grown for 8-22 days in a greenhouse with an approximate 14 h photoperiod which was maintained at about 29° C. during the day and 26° C. during the night. Nutrients (Peters Excel® 15-5-15 5-Ca 2-Mg and iron chelate) were applied in the irrigation solution as needed and water was added on a regular basis. Supplemental lighting was provided with overhead metal halide 1000-Watt lamps as necessary. The plants were employed for testing when they reached the first through fourth true leaf stage.
(§1) Forms of compound A were applied on an acid equivalent basis.
(§2) For treatments comprised of formulated compounds, measured amounts of compounds were placed individually in 25 mL glass vials and diluted in a volume of 1.25% (v/v) Agri-Dex® crop oil concentrated to obtain 12× stock solutions. […] Application solutions were prepared by adding an appropriate amount of each stock solution (e.g., 1 mL) and diluted to the appropriate final concentrations with the addition of 10 mL of an aqueous mixture of 1.25% (v/v) crop oil concentrate so that the final spray solutions contained 1.25+/−0.05% (v/v) crop oil concentrate.
As required, additional water and/or 97:3 v/v acetone/DMSO was added to individual application solutions so that the final acetone and DMSO concentrations of the application solutions being compared were 8.1% and 0.25%, respectively.
(§3) All stock solutions and applications solutions were visually inspected for compound compatibility prior to application. Spray solutions were applied to the plant material with an overhead Mandel track sprayer equipped with a 8002E nozzles calibrated to deliver 187 L/ha over an application area of 0.503 m^2 at a spray height of 18 to 20 inches (46 to 50 cm) above average plant canopy height. Control plants were sprayed in the same manner with the solvent blank.
The treated plants and control plants were placed in a greenhouse as described above and watered by sub-irrigation to prevent wash-off of the test compounds. After approximately 3 weeks, the condition of the test plants as compared with that of the untreated plants was determined visually and scored on a scale of 0 to 100 percent where 0 corresponds to no injury or growth inhibition and 100 corresponds to complete kill.
(§4) Colby's equation was used to determine the herbicidal effects expected from the mixtures (Colby, S. R. 1967. Calculation of the synergistic and antagonistic response of herbicide combinations. Weeds 15:20-22.).
(§5) The following equation was used to calculate the expected activity of mixtures containing two active ingredients, A and B: Expected=A+B−(A×B/100)

[2] = system: Ipomoea hederacea (L.) Jacq. (IPOHE); experiment: Pre-emergence soil-applied, greenhouse: visual weed control; settings: Propyzamide 1120 g ai/ha alone; soil-applied pre-emergence; 33 DAA
From the text: (§6) Seeds or nutlets of the desired test plant species were planted in a soil matrix prepared by mixing a loam soil (e.g., 32 percent silt, 23 percent clay, and 45 percent sand, with a pH of about 6.5 and an organic matter content of about 1.9 percent) and calcareous grit in an 80 to 20 ratio. The soil matrix was contained in plastic pots with a volume of 1 quart and a surface area of 83.6 square centimeters (cm^2).
as §1
as §2, with “oil concentrate (COC)” for “oil concentrated”, “(v/v) COC” for “(v/v) crop oil concentrate”, “contained 1.25%” for “contained 1.25+/−0.05%”, “(v/v) COC.” for “(v/v) crop oil concentrate.”
(§7) For treatments comprised of formulated and technical compounds, weighed amounts of the technical materials were placed individually in 25 mL glass vials and dissolved in a volume of 97:3 (v/v) acetone/DMSO to obtain 12× stock solutions, and measured amounts of the formulated compounds were placed individually in 25 mL glass vials and diluted in a volume of 1.5% (v/v) COC or water to obtain 12× stock solutions. […] Application solutions were prepared by adding an appropriate amount of each stock solution (e.g., 1 mL) and diluted to the appropriate final concentrations with the addition of an appropriate amount of an aqueous mixture of 1.5% (v/v) COC so that the final spray solutions contained 1.25% (v/v) COC. As required, additional water and/or 97:3 (v/v) acetone/DMSO was added to individual application solutions so that the final acetone and DMSO concentrations of the application solutions being compared were 8.1% and 0.25%, respectively.
as §3, with “soil” for “plant material”, “18” for “18 to 20”, “(46” for “(46 to 50”, “pot” for “plant canopy”, “pots” for “plants”
The treated and control pots were placed in a greenhouse and top watered as needed. […] The pots were maintained in a greenhouse with an approximate 14 hr photoperiod which was maintained at about 29° C. during the day and 26° C. during the night. Nutrients (Peters® Excel 15-5-15 5-Ca 2-Mg) were applied in the irrigation solution as needed and water was added on a regular basis. Supplemental lighting was provided with overhead metal halide 1000-Watt lamps as necessary. After approximately 4 weeks, the condition of the test plants as compared with that of the untreated plants was determined visually and scored on a scale of 0 to 100 percent where 0 corresponds to no injury or growth inhibition and 100 corresponds to complete kill.
as §4, §5

[3] = system: Brachiaria platyphylla (Groseb.) Nash or Urochloa platyphylla (Nash) R.D. Webster (BRAPP); experiment: as above
From the text: as §6
(§8) Treatments consisted of the benzyl ester of 4-amino-3-chloro-5-fluoro-6-(4-chloro-2-fluoro-3-methoxy-phenyl)pyridine-2-carboxylic acid (compound A) formulated as an SC (suspension concentrate) and various herbicidal components alone and in combination. Forms of compound A were applied on an acid equivalent basis.
(§9) Treatment requirements were calculated based upon the rates being tested, the concentration of active ingredient or acid equivalent in the formulation, and a 12 mL application volume at a rate of 187 L/ha.
as §2, with “oil concentrate (COC)” for “oil concentrated”, “(v/v) COC” for “(v/v) crop oil concentrate”, “contained 1.25%” for “contained 1.25+/−0.05%”, “(v/v) COC.” for “(v/v) crop oil concentrate.”
as §7
as §3, with “soil” for “plant material”, “18” for “18 to 20”, “(46” for “(46 to 50”, “pot” for “plant canopy”, “pots” for “plants”
(§10) The treated and control pots were placed in a greenhouse and top watered as needed. When required to ensure good germination and healthy plants, a fungicide treatment and/or other chemical or physical treatment was applied. The pots were maintained in a greenhouse with an approximate 14 hr photoperiod which was maintained at about 29° C. during the day and 26° C. during the night. Nutrients (Peters® Excel 15-5-15 5-Ca 2-Mg) were applied in the irrigation solution as needed and water was added on a regular basis. Supplemental lighting was provided with overhead metal halide 1000-Watt lamps as necessary. After approximately 4 weeks, the condition of the test plants as compared with that of the untreated plants was determined visually and scored on a scale of 0 to 100 percent where 0 corresponds to no injury or growth inhibition and 100 corresponds to complete kill.
(§11) Colby's equation was used to determine the herbicidal effects expected from the mixtures (Colby, S. R. 1967. Calculation of the synergistic and antagonistic response of herbicide combinations. Weeds 15:20-22.). […]

[4] = system: Echinochloa colonum (L.) Link (ECHCO); experiment: as above
From the text: as §6, §8, §9
as §2, with “oil concentrate (COC)” for “oil concentrated”, “(v/v) COC” for “(v/v) crop oil concentrate”, “contained 1.25%” for “contained 1.25+/−0.05%”, “(v/v) COC.” for “(v/v) crop oil concentrate.”
as §7
as §3, with “soil” for “plant material”, “18” for “18 to 20”, “(46” for “(46 to 50”, “pot” for “plant canopy”, “pots” for “plants”
as §10, §11

[5] = system: Echinochloa crus-galli (L.) P. Beauv. (ECHCG); experiment: as above
From the text: as §6, §8, §9
as §2, with “oil concentrate (COC)” for “oil concentrated”, “(v/v) COC” for “(v/v) crop oil concentrate”, “contained 1.25%” for “contained 1.25+/−0.05%”, “(v/v) COC.” for “(v/v) crop oil concentrate.”
as §7
as §3, with “soil” for “plant material”, “18” for “18 to 20”, “(46” for “(46 to 50”, “pot” for “plant canopy”, “pots” for “plants”
as §10, §11

[6] = system: Sesbania exaltata (Raf.) Cory/Rydb. Ex Hill (SEBEX); experiment: as above
From the text: as §6, §8, §9
as §2, with “oil concentrate (COC)” for “oil concentrated”, “(v/v) COC” for “(v/v) crop oil concentrate”, “contained 1.25%” for “contained 1.25+/−0.05%”, “(v/v) COC.” for “(v/v) crop oil concentrate.”
as §7
as §3, with “soil” for “plant material”, “18” for “18 to 20”, “(46” for “(46 to 50”, “pot” for “plant canopy”, “pots” for “plants”
as §10, §11

[7] = system: Setaria faberi Herrm. (SETFA); experiment: as above
From the text: as §6, §8, §9
as §2, with “oil concentrate (COC)” for “oil concentrated”, “(v/v) COC” for “(v/v) crop oil concentrate”, “contained 1.25%” for “contained 1.25+/−0.05%”, “(v/v) COC.” for “(v/v) crop oil concentrate.”
as §7
as §3, with “soil” for “plant material”, “18” for “18 to 20”, “(46” for “(46 to 50”, “pot” for “plant canopy”, “pots” for “plants”
as §10, §11

## C#CC(C)(C)NC(=O)c1cc(Cl)cc(Cl)c1 [Propyzamide]
[1]; 70 g ai/ha
  pest or weed control at 70 g/ha: 0%
[1]; 140 g ai/ha
  pest or weed control at 140 g/ha: 0%
[1]; 280 g ai/ha
  pest or weed control at 280 g/ha: 0%
[2]
  Visual Weed Control (%) - 33 DAA IPOHE Obs: 35%
[3]; Propyzamide 280 g ai/ha alone
  Visual Weed Control (%) - 33 DAA BRAPP Obs: 20%
[3]; Propyzamide 560 g ai/ha alone
  Visual Weed Control (%) - 33 DAA BRAPP Obs: 37%
[4]; Propyzamide 280 g ai/ha alone
  Visual Weed Control (%) - 33 DAA ECHCO Obs: 0%
[4]; Propyzamide 560 g ai/ha alone
  Visual Weed Control (%) - 33 DAA ECHCO Obs: 23%
[4]; Propyzamide 1120 g ai/ha alone
  Visual Weed Control (%) - 33 DAA ECHCO Obs: 80%
[5]; Propyzamide 560 g ai/ha alone
  Visual Weed Control (%) - 33 DAA ECHCG Obs: 35%
[5]; Propyzamide 1120 g ai/ha alone
  Visual Weed Control (%) - 33 DAA ECHCG Obs: 53%
[6]; Propyzamide 280 g ai/ha alone
  Visual Weed Control (%) - 33 DAA SEBEX Obs: 20%
[6]; Propyzamide 560 g ai/ha alone
  Visual Weed Control (%) - 33 DAA SEBEX Obs: 13%
[6]; Propyzamide 1120 g ai/ha alone
  Visual Weed Control (%) - 33 DAA SEBEX Obs: 37%
[7]; Propyzamide 280 g ai/ha alone
  Visual Weed Control (%) - 33 DAA SETFA Obs: 0%
[7]; Propyzamide 560 g ai/ha alone
  Visual Weed Control (%) - 33 DAA SETFA Obs: 68%
[7]; Propyzamide 1120 g ai/ha alone
  Visual Weed Control (%) - 33 DAA SETFA Obs: 93%
